According to US20240141330A1, “METHODS AND COMPOSITIONS FOR MUTAGENESIS SCREENING IN MAMMALIAN CELLS” (THE BOARD OF REGENTS OF THE UNIVERSITY OF TEXAS SYSTEM, priority 2021, published 2024):
Where two headings read alike, the source gives them in different places.

Tested on: K562 cells harboring doxycycline-inducible BCR-ABL1 variants
Conditions: FIG. 7C
Source text: Values shown are averages±standard error of the mean (SEM) of 2 biological replicates.
For this example, the K562 CML cell line was used as it harbored the BCR-ABL1 fusion gene/protein and was highly sensitive to BCR-ABL1 inhibitors.
LentiMutate may create large and small indels because the HIV-1 RT is known to switch templates and have low processivity. […] As a comparison, also tested was the 35INS variant, a BCR-ABL variant detected in patient samples that truncates BCR-ABL at the end of the kinase domain, producing a kinase dead protein, due to the insertion and usage of a 35 bp sequence in an intron that acts as a novel splicing site.

Compound: O=C(Nc1ccc(OC(F)(F)Cl)cc1)c1cnc(N2CC[C@@H](O)C2)c(-c2cc[nH]n2)c1 [asciminib]
- Resistance conferred by BCR-ABL1 variant (deletions in ABL1 (−SV11)): did not
- Resistance conferred by BCR-ABL1 variant (deletions in BCR (−SV8 and −NTCD)): conferred resistance
